Tests used:
Type in all cases: ADME, organism-based
[1] = Oral bioavailability in rat at 5 mg/kg; conditions: in vivo
[2] = Cmax in rat at 5 mg/kg, po; parameters: dose 5 mg/kg, route oral; conditions: in vivo
[3] = AUC in rat at 5 mg/kg, po; parameters: dose 5 mg/kg, route oral; conditions: plasma

SMILES	bioavailability [1] [%]	Cmax [2] [nM]	AUC [3] [µM·h]
CC(C)(C#Cc1ccc(NC(=O)CSc2nnnn2-c2ccc(C3CC3)cc2Cl)c(Cl)c1)CNCC(=O)O	29	260	0.84
CC(C)(C#Cc1ccc(NC(=O)CSc2nnnn2-c2ccc(C3CC3)cc2Cl)c(Cl)c1)C(=O)O	66	5000	9.5
CC(C)(C#Cc1ccc(NC(=O)CSc2nnnn2-c2ccc(C3CC3)cc2Cl)c(Cl)c1)NC(=O)CN	21	280	1

Reference: ChEMBL document CHEMBL1149570, “Thiotetrazole alkynylacetanilides as potent and bioavailable non-nucleoside inhibitors of the HIV-1 wild type and K103N/Y181C double mutant reverse transcriptases” (Bioorg Med Chem Lett, 2007)
